Reference: patent US20210369623A1, “COMPOSITION THAT FORMS LIQUID CRYSTALLINE PARTICLES” (Zeenar Enterprises Pty Ltd, priority 2018, published 2021)

How the values were obtained:
[1] = SAXS of mixtures of GMO and excipient/active ingredient immersed in PBS (liquid crystal phase and lattice size); type: physicochemical; set-up: lamella phase lattice size: unit not given here; conditions: for Threshold (minimum amount of ingredient required to increase the water channel size): % w/w of ingredient in GMO; for Phase structure: PBS buffer pH 6.8, ~22° C.; for Concentration at which V2(Pn3m) lattice size increased / Concentration of transformation/transition in liquid crystalline structure: concentration in GMO; for Concentration of transformation/transition in liquid crystalline structure: change to structure with larger water channels (e.g. Im3m)
Description: The samples were then mixed via a roller mixer at ˜10 RPM at 40° C. for at least 3 days.
One week prior to SAXS experiment, 100 mg samples were loaded into a transparent polystyrene 96 well plate (Nunc™) and immersed in 200 μL of PBS buffer (pH 6.8). The samples were stored away from light at ambient temperature, to allow the samples to reach equilibrium.
The SAXS/WAXS beamline at Australian Synchrotron, Melbourne, Australia was used to determine the liquid crystalline nanostructure in the samples.
A custom-designed plate holder was used to mount the samples plate directly onto the SAXS/WAXS beamline. Scans were automated using a pre-loaded set of position variables based on the well positions within the plate, the exposure time was 5 sec.
Data were obtained at ambient temperature (˜22° C.). […] The 2-D diffraction images were recorded on a Pilatus 1M detector and radially integrated using the in-house software “ScatterBrain”.

[2] = cited from earlier work
[3] = In vitro release/permeation through porcine buccal mucosa in modified Ussing chamber (rosuvastatin, oxycodone, atorvastatin); conditions: not yet tested
[4] = Concentration in GMO 1%, first value of the cell (first phase listed)
[5] = Concentration in GMO 5%, first value of the cell (first phase listed)
[6] = Concentration in GMO 10%, first value of the cell (first phase listed)
[7] = Concentration in GMO 10%, second value of the cell (second phase)
[8] = Concentration in GMO 15%, first value of the cell (first phase listed)
[9] = Concentration in GMO 15%, second value of the cell (second phase)
[10] = Concentration in GMO 20%, first value of the cell (first phase listed)

In the case of `O=S(=O)([O-])NC1CCCCC1.[Na+]` [Sodium cyclamate], the “Threshold (minimum amount of ingredient required to increase the water channel size)” value [1] is reported as 3-5%, the Phase structure ([1]; Concentration in GMO 1%) is reported as “V2(Pn3m)” and the Lattice size [1, 4] is reported as 93.1 Å. The Phase structure ([1]; Concentration in GMO 5%) was “V2(Pn3m)”, the Lattice size [1, 5] was 103 Å and the Phase structure ([1]; Concentration in GMO 10%) was “V2(Pn3m) + other”. For the same molecule, the Lattice size [1, 6] was 113 Å and the “Concentration at which V2(Pn3m) lattice size increased” value [1] was 5-10%.
For `CC(C)c1nc(N(C)S(C)(=O)=O)nc(-c2ccc(F)cc2)c1/C=C/[C@@H](O)C[C@@H](O)CC(=O)O` [Rosuvastatin], the “Threshold (minimum amount of ingredient required to increase the water channel size)” value [1] was “A threshold of 3-5% or about 5%. Transformation in structure”, the Phase structure ([1]; Concentration in GMO 1%) was “V2(Pn3m)” and the Lattice size [1, 4] was 84.2 Å. The Phase structure ([1]; Concentration in GMO 5%) was “V2(Pn3m)”, the Lattice size [1, 5] was 109 Å and the Phase structure ([1]; Concentration in GMO 10%) was “V2(Pn3m)”. For the same molecule, the Lattice size [1, 6] was 109 Å, the Lattice size [1, 7] was 131 Å and the Phase structure ([1]; Concentration in GMO 15%) was “V2(Pn3m) + V2(Im3m)”. For the same molecule, the Lattice size [1, 8] was 122 Å, the Lattice size [1, 9] was 148 Å and the “Concentration at which V2(Pn3m) lattice size increased” value [1] was “Rosuvastatin - V2(Pn3m) lattice size increased at 5-15%”. The logP [2] was 1.92.
For `CNCC(O)c1ccc(O)c(O)c1` (stereo not drawn) [Adrenaline], the “passage through the porcine oral mucosa in a Ussing chamber” value [3] is given as “expected to pass through the porcine oral mucosa” and the logP [2] is given as −0.5 to −1.4.
In the case of `CCCCCCCCCCCCOS(=O)(=O)[O-].[Na+]` [SLS, sodium lauryl sulphate], the “Threshold (minimum amount of ingredient required to increase the water channel size)” value [1] is reported as 3-5% or about 5%. SLS was also tested in SBT137 and shown to increase, the Phase structure ([1]; Concentration in GMO 1%) is reported as “V2(Pn3m)” and the Lattice size [1, 4] is reported as 95.4 Å. For the same molecule, the Phase structure ([1]; Concentration in GMO 5%) was “V2(Pn3m)”, the Lattice size [1, 5] was 116 Å and the Phase structure ([1]; Concentration in GMO 10%) was “V2(Pn3m)”. For the same molecule, the Lattice size [1, 6] was 133 Å and the “Concentration of transformation/transition in liquid crystalline structure” value [1] was “with large water channels. Transition at about 50%”.
For `CC(C)c1c(C(=O)Nc2ccccc2)c(-c2ccccc2)c(-c2ccc(F)cc2)n1CC[C@@H](O)C[C@@H](O)CC(=O)O` [Atorvastatin], the “Threshold (minimum amount of ingredient required to increase the water channel size)” value [1] was 8-10%, the Phase structure ([1]; Concentration in GMO 1%) was “V2(Pn3m)” and the Lattice size [1, 4] was 93.1 Å. The Phase structure ([1]; Concentration in GMO 5%) was “V2(Pn3m)”, the Lattice size [1, 5] was 99.2 Å and the Phase structure ([1]; Concentration in GMO 10%) was “V2(Pn3m)”. The Lattice size [1, 6] was 105 Å, the Phase structure ([1]; Concentration in GMO 15%) was “V2(Pn3m)” and the Lattice size [1, 8] was 101 Å. The Phase structure ([1]; Concentration in GMO 20%) was “V2(Pn3m)”, the Lattice size [1, 10] was 103 Å and the Phase structure ([1]; Concentration in GMO 25%) was “V2(Pn3m)”. For the same molecule, the Lattice size ([1]; Concentration in GMO 25%, first value of the cell (first phase listed)) was 102 Å, the Phase structure ([1]; Concentration in GMO 35%) was “V2(Pn3m)” and the Lattice size ([1]; Concentration in GMO 35%, first value of the cell (first phase listed)) was 105 Å. The “Concentration at which V2(Pn3m) lattice size increased” value [1] was 10-35%.
For `O=C1NS(=O)(=O)c2ccccc21.[Na]` [Saccharin sodium], the “Threshold (minimum amount of ingredient required to increase the water channel size)” value [1] was 3-5%, the Phase structure ([1]; Concentration in GMO 1%) was “V2(Pn3m)” and the Lattice size [1, 4] was 95.4 Å. The Phase structure ([1]; Concentration in GMO 5%) was “V2(Pn3m)”, the Lattice size [1, 5] was 107 Å and the Phase structure ([1]; Concentration in GMO 10%) was “V2(Pn3m) + others”. The Lattice size [1, 6] was 120 Å and the “Concentration at which V2(Pn3m) lattice size increased” value [1] was 5-10%.
For `CCCCCCCC/C=C\CCCCCCCC(=O)OCCOCC(OCCO)C1OCC(OCCO)C1OCCO` (stereo not drawn) [Tween 80], the “Threshold (minimum amount of ingredient required to increase the water channel size)” value [1] was “size from an ODT. A threshold of 8-10% or about 10%”, the Phase structure ([1]; Concentration in GMO 1%) was “V2(Pn3m)” and the Lattice size [1, 4] was 91.9 Å. The Phase structure ([1]; Concentration in GMO 5%) was “V2(Pn3m)”, the Lattice size [1, 5] was 97.9 Å and the Phase structure ([1]; Concentration in GMO 10%) was “V2(Pn3m)”. The Lattice size [1, 6] was 106 Å, the Lattice size [1, 7] was 139 Å and the Phase structure ([1]; Concentration in GMO 20%) was “V2(Pn3m) + V2(Im3m)”. The Lattice size [1, 10] was 138 Å, the Lattice size ([1]; Concentration in GMO 20%, second value of the cell (second phase)) was 172 Å and the “Concentration at which V2(Pn3m) lattice size increased” value [1] was “Tween 80 - V2(Pn3m) lattice size increased at 10-20%”. For the same molecule, the “Concentration of transformation/transition in liquid crystalline structure” value [1] was “Transformation in structure by about 20%”.
In the case of Magnesium stearate, the V2(Pn3m) lattice size ([1]; ingredient 1-20% in GMO) is reported as 93 to 95 Å, the “lamella phase lattice size” value ([1]; ingredient at 5-30% in GMO) is reported as 50 and the H2 lattice size ([1]; ingredient at 30% in GMO) is reported as 62 nm.
With Ibuprofen lysine the “Threshold (minimum amount of ingredient required to increase the water channel size)” value [1] was 3-5%, the Phase structure ([1]; Concentration in GMO 1%) was “V2(Pn3m)” and the Lattice size [1, 4] was 88.9 Å. For the same molecule, the Phase structure ([1]; Concentration in GMO 5%) was “V2(Pn3m)”, the Lattice size [1, 5] was 105 Å and the Phase structure ([1]; Concentration in GMO 10%) was “V2(Pn3m) + V2(Ia3d)”. For the same molecule, the Lattice size [1, 6] was 131 Å, the Lattice size [1, 7] was 189 Å and the Phase structure ([1]; Concentration in GMO 15%) was “Lα + V2(Ia3d)”. For the same molecule, the Lattice size [1, 8] was 80.7 Å, the Lattice size [1, 9] was 198 Å and the “Concentration at which V2(Pn3m) lattice size increased” value [1] was 5-10%. For the same molecule, the “Concentration of transformation/transition in liquid crystalline structure” value [1] was “Transformation in structure by about 10%”.
For `OC[C@@H](O)[C@@H](O)[C@H](O)[C@@H](O)CO` [Sorbitol], the V2(Pn3m) lattice size ([1]; ingredient 1 to 50% in GMO) was 83 to 92 Å, the “V2(Ia3d) lattice size” value ([1]; ingredient at 1% in GMO, blended with V2(Pn3m)) was “about 138 nm” and the “impact on the GMO cubic structure formed” value ([1]; tablet excipient mixed with GMO) was “minimal impact”.
